Data: patent publication US20130084614A1, “METHODS OF REMOVING INHIBITORS FROM CELLULOSIC BIOMASS AND PRODUCING ALCOHOLS” (3M INNOVATIVE PROPERTIES COMPANY, priority 2010, published 2013)
Structures can show the parent of a compound that is named as a salt. Where two headings read alike, the source gives them in different places.

How the values were obtained:
[1] = Confirmatory laboratory extraction of a synthetic inhibitor/sugar mixture; format: physicochemical; conditions: 5 mL synthetic solution + 5 mL solvent, 20° C., HPLC
Text: In order to define a standardized method of comparing solvents, a new parameter called extraction yield was created. Extraction yield is a ratio of the concentration of a species in the extract to the concentration of that species in the feed. […].
Another parameter, the extraction score, was defined in order to rank overall inhibitor removal performance. Each extraction yield of inhibitors and sugars was multiplied by a weighting factor determined by the importance of removing or retaining the particular compound in the feed. The resulting numbers were then summed to calculate the extraction score.
The confirmatory extraction of a synthetic inhibitor/sugar mixture was next carried out using inhibitors and sugars to mimic the conditions in acid-pretreated cellulosic fermentation feed. The synthetic solutions contained 1 g/L each of formic acid, lactic acid, acetic acid, furfural, HMF and vanillin as well as 20 g/L of glucose and 60 g/L of xylose. Five mL of this synthetic solution and 5 mL of solvent were added to a test tube and the test tubes were shaken in a Lab Line Instruments (Mumbai, India) “MULTI-WRIST SHAKER” at a setting of 8 for 10 min at 20° C. The mixture was allowed to settle overnight to phase separate completely. Inhibitor concentrations in each phase were analyzed by an Agilent Technologies (Santa Clara, Calif.) 1100 HPLC system consisting of a quaternary gradient pump, autosampler, heated column compartment, and diode array absorbance detector. Gradient elution was done on a YMC Company Ltd. (Kyoto, Japan) “YMC Carotenoid S-5” (C30) column with 0.05% phosphoric acid and a solvent ramp of 0% acetonitrile/100% water to 90% acetonitrile/10% water and back over 32.5 minutes. Based on the measured concentration of each inhibitor and sugar, extraction yields and scores were calculated and shown in Table 1 and reported as “laboratory extraction yield” and “laboratory extraction score”; (see footnotes 2 and 3).

E. Coli, FBR-5 strain = experiment: Fermentation of extracted C5 fraction, sugar and ethanol by HPLC; format: cell-based, Escherichia coli
[2] = cited from earlier work
[3] = CE2 liquid/liquid solvent extraction (not membrane), 0 hrs
[4] = CE2 liquid/liquid solvent extraction (not membrane), 24 hrs
[5] = EX4 multilayer cross-flow MSE, 0 hrs
[6] = EX4 multilayer cross-flow MSE, 24 hrs
[7] = EX4 multilayer cross-flow MSE, 48 hrs
[8] = IUPAC-NIST Solubility Data Series / Yaws' Handbook

Row | laboratory extraction yield, Acetic acid [1] | laboratory extraction yield, Formic acid [1] | laboratory extraction yield, Furfural [1] | laboratory extraction yield, HMF [1] | laboratory extraction yield, Lactic acid [1] | laboratory extraction yield, Vanillin [1] | SMILES | Water Solubility ([2]; literature values) [g/100 mL] | also measured
1 | 0.000^3 | 0.020^3 | 0.593^3 | 0.200^3 | 0.050^3 | 0.903^3 | CCCCCCCCCCCCO [1-dodecanol] |  | 
2 | 0.361^3 | 0.239^3 | 0.728^3 | 0.360^3 | 0.180^3 | 0.931^3 | CCCCCCCCO [1-octanol] | 0.11 | 
3 | 0.301^3 | 0.180^3 | 0.593^3 | 0.220^3 | 0.070^3 | 0.851^3 | CC(C)CC(O)CC(C)C [2,6-dimethyl-4-heptanol] | 0.045 | 
4 | 0.352^3 | 0.213^3 | 0.669^3 | 0.337^3 | 0.112^3 | 0.918^3 | CCCCC(CC)CO (stereo not drawn) [2-ethyl-1-hexanol] |  | 
5 |  |  |  |  |  |  | CCCCC(C)O (stereo not drawn) [2-hexanol] | 0.35 | 
6 |  |  |  |  |  |  | CCCCCCCC(C)=O [2-nonanone] | 0.050 | 
7 | 0.397^3 | 0.280^3 | 0.687^3 | 0.394^3 | 0.155^3 | 0.937^3 | CCCCCCC(C)O (stereo not drawn) [2-octanol] | 0.11 | 
8 | 0.321^3 | 0.130^3 | 0.895^3 | 0.310^3 | 0.030^3 | 0.931^3 | CCCCCCC(=O)CC [3-nonanone] | 0.010 | 
9 | 0.351^3 | 0.234^3 | 0.917^3 | 0.647^3 | 0.137^3 | 0.700^3 | CC(=O)c1ccccc1 [Acetophenone] | 0.10 | 
10 |  |  |  |  |  |  | CCCCNCCCC [Dibutylamine] | 0.35 | 
11 |  |  |  |  |  |  | CCCCCCCC/C=C\CCCCCCCCO [Oleyl alcohol] | 0.018 | 
12 |  |  |  |  |  |  | CCCCCCCCN(CCCCCCCC)CCCCCCCC [Trioctylamine] | 0.10 | 
13 |  |  |  |  |  |  | C1CCCCC1 [cyclohexane] | 0.0017 | 
14 |  |  |  |  |  |  | C1CCC2CCCCC2C1 (stereo not drawn) [decahydronapthalene] | 0.002 | 
15 |  |  |  |  |  |  | CCCCOC(=O)/C=C\C(=O)OCCCC [dibutyl maleate] |  | Ethanol (E. Coli, FBR-5 strain; [3]): 0 g/L; Sugar (E. Coli, FBR-5 strain; [3]): 45 g/L; Ethanol (E. Coli, FBR-5 strain; [4]): 20 g/L; Sugar (E. Coli, FBR-5 strain; [4]): 1 g/L; Ethanol (E. Coli, FBR-5 strain; EX3 single layer MSE, 0 hrs): 0 g/L; Sugar (E. Coli, FBR-5 strain; EX3 single layer MSE, 0 hrs): 51 g/L; Ethanol (E. Coli, FBR-5 strain; EX3 single layer MSE, 24 hrs): 19 g/L; Sugar (E. Coli, FBR-5 strain; EX3 single layer MSE, 24 hrs): 2 g/L
16 |  |  |  |  |  |  | CCOCC [diethyl ether, reference compound] |  | Water Solubility [2, 8]: 6.9 grams per 100 mL
17 |  |  |  |  |  |  | CCOC(C)=O [ethyl acetate, reference compound] |  | Water Solubility [2, 8]: 8.3 grams per 100 mL
18 | 0.221^3 | 0.160^3 | 0.937^3 | 0.360^3 | 0.050^3 | 1.001^3 | CCCC(=O)OCC [ethyl butyrate] | 0.50 | 
19 |  |  |  |  |  |  | CC(C)OC(C)C [isopropyl ether] | 0.20 | 
20 |  |  |  |  |  |  | CCCCCCCCCC [n-decane] | 0.10 | 
21 |  |  |  |  |  |  | CCCCCCCCCCCC [n-dodecane] | 0.10 | 
22 |  |  |  |  |  |  | CCCCCC [n-hexane] | 0.10 | 
23 |  |  |  |  |  |  | CCCCCCCCCCCCCC [n-tetradecane] | 0.10 | 
24 |  |  |  |  |  |  | CCCN(CCC)CCC [tripropylamine] | 0.10 | 

Row | SMILES | laboratory extraction yield, Acetic acid [1] | laboratory extraction yield, Formic acid [1] | laboratory extraction yield, Furfural [1] | laboratory extraction yield, HMF [1] | laboratory extraction yield, Lactic acid [1] | laboratory extraction yield, Vanillin [1] | Water Solubility ([2]; literature values) [g/100 mL] | also measured
25 | CCCCCCCCCCO [1-decanol] | 0.281^3 | 0.180^3 | 0.666^3 | 0.280^3 | 0.120^3 | 0.911^3 | 0.10 | Ethanol (E. Coli, FBR-5 strain; [3]): 0 g/L; Sugar (E. Coli, FBR-5 strain; [3]): 48 g/L; Ethanol (E. Coli, FBR-5 strain; [4]): 23 g/L; Sugar (E. Coli, FBR-5 strain; [4]): 1 g/L; Ethanol (E. Coli, FBR-5 strain; EX3 single layer MSE, 0 hrs): 0 g/L; Sugar (E. Coli, FBR-5 strain; EX3 single layer MSE, 0 hrs): 48 g/L; Ethanol (E. Coli, FBR-5 strain; EX3 single layer MSE, 24 hrs): 20 g/L; Sugar (E. Coli, FBR-5 strain; EX3 single layer MSE, 24 hrs): 3 g/L; Ethanol (E. Coli, FBR-5 strain; [5]): 0 g/L; Sugar (E. Coli, FBR-5 strain; [5]): 50 g/L; Ethanol (E. Coli, FBR-5 strain; [6]): 12 g/L; Sugar (E. Coli, FBR-5 strain; [6]): 30 g/L; Ethanol (E. Coli, FBR-5 strain; [7]): 18 g/L; Sugar (E. Coli, FBR-5 strain; [7]): 12 g/L
26 | O=Cc1ccccc1 [benzaldehyde] | 0.301^3 | 0.200^3 | 1.114^3 | 0.841^3 | 0.070^3 | 1.392^3 | 0.01 | 
